The IC50 is the midpoint of a concentration-inhibition curve.

Drawing on US10017492B2 (KANGPU BIOPHARMACEUTICALS, LTD., priority 2014, dated 2018), this text covers inhibition and IC50 for 25 compounds.

The test system of one experiment is TNF-α. The experiment in a line: TNF-α activity inhibiting assay (LPS-stimulated peripheral blood, ELISA). The conditions noted are these: Homo sapiens, compound 100 nM, diluted peripheral blood of healthy volunteers, LPS 10 ng/mL, 6 hours, read-out: Inhibitory Rate on TNF-α (%). The format is cell-based, human. The protocol: TNF-α Activity Inhibiting Assay
Peripheral blood from healthy volunteers was collected and collected with EDTA anticoagulant tubes. After being diluted 5-fold with 1640 medium (Gibco, catalog number 11875-093, USA), the blood was added to 96-well cell culture plates (Costar, catalog number 3599, USA) and then treated with 10 μL solution of the compound of general formula (I) of the present invention in DMSO (Sigma, catalog number D2650, USA). The final concentration of the compound was 100 nM, and the final concentration of DMSO was 0.2%. After incubation for 60 minutes in an incubator at 37° C. under 5% CO2, 10 μL LPS (Sigma, catalog number L-2880, USA) was added to the reaction system, and the final concentration was 10 ng/mL. After further culturing for 6 hours in the incubator at 37° C. under 5% CO2, the supernatant was collected. The content of TNF-α was determined by ELISA (BD Biosciences, catalog number 555212, USA). Absorbance was detected at OD450 nm with a microplate reader, with OD 650 nm as reference. The control, a solution containing 0.2% DMSO medium, was as 0% inhibition. Raw data and standard curves were recorded. The four-parameter drug inhibition curve was plotted by XL-fit software and the inhibition rate of each compound was calculated, as shown in Table 1.

The subject of experiment [1] is MM.1S cells (myeloma cells). Nature of the experiment: Cell proliferation assay (MTS), MM.1S myeloma cells. The format is cell-based. The following applies: Homo sapiens, MM1.S, 72 hours, read-out: IC50 values of MMIS Inhibition. The protocol: MM.1S cells (myeloma cells) (ATCC, catalog number CRL-2974) were seeded at 1.8×10^3 per well to a 96-well culture plate containing […] (Gibco, catalog number A10491-01), and were incubated in an incubator for 24 hours at 37° C. under 5% CO2. Compounds were prepared as 20 mM stock solutions with DMSO (Sigma, catalog number D2650), and were diluted with the medium to the desired concentration (the final concentration of DMSO was 0.5%) and then were added to each well, incubated in an incubator for 72 hours at 37° C. under 5% CO2. Then, 20 μL MTS (Promega, catalog number G3581) was added to each well, and further incubated for 1-4 hours in an incubator at 37° C. under 5% CO2. OD490 nm was detected with OD650 nm as reference. The control, a solution containing 0.5% DMSO medium, was as 0% inhibition. GraphPad Prism 5 was used, slope was allowed to change to make the dose-effect curve and IC50 values were calculated, shown in table 2 for details.

As to `Cc1cccc(CNc2cccc3c2CN(C2CCC(=O)NC2=O)C3=O)c1F` (centres unmarked) [Compound A367, 3-(4-((2-fluoro-3-methylbenzyl)amino)-1-oxoisoindolin-2-yl)piperidine-2,6-dione], the inhibition at 0.1 µM in the experiment with TNF-α was no less than 50%. In experiment [1], the IC50 is less than 300 nM.
For `O=C1CCC(N2Cc3c(NCc4cc(OCCN5CCOCC5)ccc4F)cccc3C2=O)C(=O)N1` (centres unmarked) [Compound A368, 3-(4-((2-fluoro-5-(2-morpholinoethoxy)benzyl)amino)-1-oxoisoindolin-2-yl)piperidine-2,6-dione], the inhibition at 0.1 µM in the experiment with TNF-α is no less than 50%. For the same compound, the half-inhibitory concentration (IC50) in experiment [1] was less than 300 nM.
In the case of `O=C1CCC(N2Cc3c(NCc4cc(OCCCN5CCOCC5)ccc4F)cccc3C2=O)C(=O)N1` (centres unmarked) [Compound A369, 3-(4-((2-fluoro-5-(3-morpholinopropoxy)benzyl)amino)-1-oxoisoindolin-2-yl)piperidine-2,6-dione], in the experiment on TNF-α, the inhibition at 0.1 µM is no less than 50%. The IC50 in experiment [1] was less than 300 nM.
`COCCOc1ccc(F)c(CNc2cccc3c2CN(C2CCC(=O)NC2=O)C3=O)c1` (centres unmarked) [Compound A370, 3-(4-((2-fluoro-5-(2-methoxyethoxy)benzyl)amino)-1-oxoisoindolin-2-yl)piperidine-2,6-dione]: the inhibition at 0.1 µM in the experiment with TNF-α was less than 50%. For the same compound, the half-maximal inhibitory concentration (IC50) in experiment [1] was no less than 300 nM.
`CNC(=O)Oc1ccc(F)c(CNc2cccc3c2CN(C2CCC(=O)NC2=O)C3=O)c1` (centres unmarked) [Compound A371, 3-(((2-(2,6-Dioxopiperidin-3-yl)-1-oxoisoindolin-4-yl)amino)methyl)-4-fluorophenyl methylcarbamate]: the inhibition at 0.1 µM with TNF-α was no less than 50%. Moreover, the IC50 in experiment [1] was less than 300 nM.
As to `CNc1cccc(CNc2cccc3c2CN(C2CCC(=O)NC2=O)C3=O)c1F` (centres unmarked) [Compound A372, 3-(4-((2-fluoro-3-(methylamino)benzyl)amino)-1-oxoisoindolin-2-yl)piperidine-2,6-dione], the inhibition at 0.1 µM in the experiment with TNF-α is no less than 50%. Also, the IC50 in experiment [1] was less than 300 nM.
Regarding `[2H][C@]1(N2Cc3c(NCc4ccc(CN5CCOCC5)cc4)cccc3C2=O)CCC(=O)NC1=O` [Compound A373, (S)-3-deuterium-3-(4-((4-(morpholinomethyl)benzyl)amino)-1-oxoisoindolin-2-yl)piperidine-2,6-dione], the inhibition at 0.1 µM in the experiment with TNF-α was no less than 50%. Also, the IC50 in experiment [1] was less than 300 nM.
Taken in the same sequence, the figures for `O=C1CCC(N2Cc3c(NCc4cc(OCCOC(=O)N5CCCC5)ccc4F)cccc3C2=O)C(=O)N1` (centres unmarked) [Compound A374, 2-(3-(((2-(2,6-dioxopiperidin-3-yl)-1-oxoisoindolin-4-yl)amino)methyl)-4-fluorophenoxy)ethyl pyrrolidine-1-carboxylate] were no less than 50% and less than 300 nM.
Taken in the same sequence, the figures for `O=C1CCC(N2Cc3c(NCc4cc(OCCO)ccc4F)cccc3C2=O)C(=O)N1` (centres unmarked) [Compound A375, 3-(4-((2-fluoro-5-(2-hydroxyethoxy)benzyl)amino)-1-oxoisoindolin-2-yl)piperidine-2,6-dione] were less than 50% and no less than 300 nM.
Taken in the same sequence, the figures for `O=C1CCC(N2Cc3c(NCc4cc(OCCN5CCCC5)ccc4F)cccc3C2=O)C(=O)N1` (centres unmarked) [Compound A376, 3-(4-((2-fluoro-5-(2-(pyrrolidin-1-yl)ethoxy)benzyl)amino)-1-oxoisoindolin-2-yl)piperidine-2,6-dione] were no less than 50% and less than 300 nM.
Take `CN1CCN(CCOc2ccc(F)c(CNc3cccc4c3CN(C3CCC(=O)NC3=O)C4=O)c2)CC1` (centres unmarked) [Compound A377, 3-(4-((2-fluoro-5-(2-(4-methylpiperazin-1-yl)ethoxy)benzyl)amino)-1-oxoisoindolin-2-yl)piperidine-2,6-dione]: in the experiment with TNF-α, the inhibition at 0.1 µM is less than 50%. In addition, the half-inhibitory concentration (IC50) in experiment [1] was no less than 300 nM.
`CN(C)C(=O)Oc1ccc(F)c(CNc2cccc3c2CN(C2CCC(=O)NC2=O)C3=O)c1` (centres unmarked) [Compound A378, 3-(((2-(2,6-dioxopiperidin-3-yl)-1-oxoisoindolin-4-yl)amino)methyl)-4-fluorophenyl dimethylcarbamate]: the inhibition at 0.1 µM in the experiment with TNF-α is less than 50%. Moreover, in experiment [1], the half-inhibitory concentration (IC50) was no less than 300 nM.
The matching figures for `[2H][C@]1(N2Cc3c(OCc4cc(OC)ccc4F)cccc3C2=O)CCC(=O)NC1=O` [Compound A379, (S)-3-deuterium-3-(4-((2-fluoro-5-methoxybenzyl)oxy)-1-oxoisoindolin-2-yl)piperidine-2,6-dione]: less than 50% and less than 300 nM.
Take `[2H][C@]1(N2Cc3c(OCc4cccc(OC)c4F)cccc3C2=O)CCC(=O)NC1=O` [Compound A380, (S)-3-deuterium-3-(4-((2-fluoro-3-methoxybenzyl)oxy)-1-oxoisoindolin-2-yl)piperidine-2,6-dione]: in the experiment with TNF-α, the inhibition at 0.1 µM is less than 50%. In addition, the half-maximal inhibitory concentration (IC50) in experiment [1] is less than 300 nM.
Taken in the same sequence, the figures for `Nc1cccc(CNc2cccc3c2CN(C2CCC(=O)NC2=O)C3=O)c1F` (centres unmarked) [Compound A384, 3-(4-((3-amino-2-fluorobenzyl)amino)-1-oxoisoindolin-2-yl)piperidine-2,6-dione] were no less than 50% and less than 300 nM.
`CNc1cccc(COc2cccc3c2CN(C2CCC(=O)NC2=O)C3=O)c1F` (centres unmarked) [Compound A385, 3-(4-((2-fluoro-3-(methylamino)benzyl)oxy)-1-oxoisoindolin-2-yl)piperidine-2,6-dione]: the inhibition at 0.1 µM in the experiment on TNF-α is no less than 50%. Moreover, the IC50 in experiment [1] was less than 300 nM.
As to `CNc1ccc(F)c(CNc2cccc3c2CN(C2CCC(=O)NC2=O)C3=O)c1` (centres unmarked) [Compound A387, 3-(4-((2-fluoro-5-(methylamino)benzyl)amino)-1-oxoisoindolin-2-yl)piperidine-2,6-dione], in the experiment with TNF-α, the inhibition at 0.1 µM was no less than 50%. For the same compound, the 50% inhibitory concentration (IC50) in experiment [1] was less than 300 nM.
On to `CC(=O)Nc1cccc(CNc2cccc3c2CN(C2CCC(=O)NC2=O)C3=O)c1F` (centres unmarked) [Compound A388, N-(3-(((2-(2,6-dioxopiperidin-3-yl)-1-oxoisoindolin-4-yl)amino)methyl)-2-fluorophenyl)acetamide], for which, in the experiment with TNF-α, the inhibition at 0.1 µM is no less than 50%. Also, the IC50 in experiment [1] was less than 300 nM.
As to `NS(=O)(=O)c1cccc(CNc2cccc3c2CN(C2CCC(=O)NC2=O)C3=O)c1F` (centres unmarked) [Compound A389, 3-(((2-(2,6-dioxopiperidin-3-yl)-1-oxoisoindolin-4-yl)amino)methyl)-2-fluorobenzenesulfonamide], the inhibition at 0.1 µM in the experiment on TNF-α was less than 50%. Moreover, the IC50 in experiment [1] was less than 300 nM.
Consider `CNc1ccc(F)c(COc2cccc3c2CN(C2CCC(=O)NC2=O)C3=O)c1` (centres unmarked) [Compound A390, 3-(4-((2-fluoro-5-(methylamino)benzyl)oxy)-1-oxoisoindolin-2-yl)piperidine-2,6-dione], for which the inhibition at 0.1 µM in the experiment with TNF-α was no less than 50%. For the same compound, the IC50 in experiment [1] is no less than 300 nM.
On to `Nc1ccc(F)c(CNc2cccc3c2CN(C2CCC(=O)NC2=O)C3=O)c1` (centres unmarked) [Compound A391, 3-(4-((5-amino-2-fluorobenzyl)amino)-1-oxoisoindolin-2-yl)piperidine-2,6-dione], for which the inhibition at 0.1 µM with TNF-α is no less than 50%. Besides, the IC50 in experiment [1] is no less than 300 nM.
For the compound `[2H][C@@]1(N2Cc3c(OCc4ccc(OC)cc4F)cccc3C2=O)CCC(=O)NC1=O` [Compound A392, (R)-3-deuterium-3-(4-((2-fluoro-4-methoxybenzyl)oxy)-1-oxoisoindolin-2-yl)piperidine-2,6-dione], in the experiment on TNF-α, the inhibition at 0.1 µM was no less than 50%. The IC50 in experiment [1] is less than 300 nM.
As for `[2H][C@]1(N2Cc3c(OCc4ccc(OC)cc4F)cccc3C2=O)CCC(=O)NC1=O` [Compound A393, (S)-3-deuterium-3-(4-((2-fluoro-4-methoxybenzyl)oxy)-1-oxoisoindolin-2-yl)piperidine-2,6-dione], the inhibition at 0.1 µM with TNF-α is less than 50%. Moreover, in experiment [1], the IC50 was less than 300 nM.
On to `O=C1CCC(N2Cc3c(NCc4ccc(O)cc4F)cccc3C2=O)C(=O)N1` (centres unmarked) [Compound A396, 3-(4-((2-fluoro-4-hydroxybenzyl)amino)-1-oxoisoindolin-2-yl)piperidine-2,6-dione], for which the inhibition at 0.1 µM with TNF-α was less than 50%. In addition, in experiment [1], the IC50 was no less than 300 nM.
For `O=C1CCC(N2Cc3c(OCc4cc(CN5CCOCC5)ccc4F)cccc3C2=O)C(=O)N1` (centres unmarked) [Compound A398, 3-(4-((2-fluoro-5-(morpholinomethyl)benzyl)oxy)-1-oxoisoindolin-2-yl)-piperidine-2,6-dione], the inhibition at 0.1 µM in the experiment with TNF-α is no less than 50%. In experiment [1], the half-maximal inhibitory concentration (IC50) is less than 300 nM.
